Data on 2 substances can be found in patent US7790171B1, “Antiviral peptides obtained from the tryptophan-rich hydrophobic cluster of the HIV-1 reverse transcriptase” (priority 2000, dated 2010).

Where no end group is shown, it is not given here.

One data set has as its system CEM cells. Nature of the data set: Toxicity in CEM cells. The data set is classed as cell-based, human.
For the next data set, the system named is HIV-1 RTMC. Put plainly: β-gal activity assay in MAGIC-5 cells, HIV-1 RTMC. It is filed as cell-based. On the procedure:
(§1) FIG. 3: Effect of MPG/p7 (SEQ ID NO:1) on replication of reference escape variant viruses. MAGIC-5 cells were incubated with 50 μl of stock HIV preparation corresponding to 1000×TCID50/ml of a, HIV-1 BRU; b, HIV-1 RTMF; c, HIV-1 RTMC; d, HIV-1 74V (FIG. 3.A); e, HIV-1 N119; f, HIV-1 RTMDR1 (FIG. 3.B), in medium alone (lane 2) or medium supplemented with AZT at 10^−5 M, 10^−6 M, 10^−7 M, 10^−8 M, 10^−9 M, and 10^−10 M (lanes 3 to 8 respectively), MPG/p7 at 10^−8 and 10^−7M (lanes 9 and 10), or MPG/p237 at 10^−6M (lane 11) additive. β-gal activity was evaluated on day 3 after virus exposure. β-gal activity in uninfected MAGIC5 cells was measured as control (lane 1). All results have been normalized (see legend of FIG. 2). The calculated values represent means of duplicate. Each figure is representative of at least three independent experiments.
(§2) β-gal activity assay. […] After 3 days in culture, cells were lysed and β-gal activity was determined by incubating 200 μl of total cellular extracts for 1 hat 37° C. in 1.5 ml buffer containing 80 mM NA2HPO4, 10 mM MgCl2, 1 mM 2 ME and 6 mM o-nitrophenyl β-D-galactopyranoside (ONPG). β-gal activity was evaluated by measuring absorbance at 410 nm.

The next data set has as its system HIV-1 RTMDR1. Put plainly: β-gal activity assay in MAGIC-5 cells, HIV-1 RTMDR1. It is filed as cell-based. Particulars: FIG. 3f. How it is done: as §1, §2
Data set [1] deals with HIV-1 BRU. Nature of the data set: RT activity assay of viral production in HIV-1 BRU-infected CEM cells. The data set is classed as cell-based. How it is done:
(§3) FIG. 1: Effect of different concentrations of MPG/p7 (SEQ ID NO:1) on HIV-1 and HIV-2 in CEM cell cultures. CEM cells exposed to 100 μl of viral suspensions containing 1000×50% tissue culture infective dose (TCID50)/m1 of HIV-1 BRU (left panels) or HIV-2 ROD (right panels). a, HIV-infected cells were cultured in medium alone (white diamonds) or medium supplemented with MPG/p7 at 10^−7 M (black circles), 10^−8 M, (black up triangles), 10^−9 M (black diamonds), and 10^−10 M (black squares). b, As controls, HIV-infected cells were treated with either azidothymidine (AZT: 10^−5 M) (white squares) or peptide MPG/p237 (SEQ ID NO:5) at 10^−6 M (black down triangles). Viral production was monitored by measuring RT activity twice a week post infection. Culture supernatants from virus-free CEM were tested as a control (white circles, FIG. 1b).
(§4) RI activity assay. CEM cells were incubated for 30 mm at 4° C. with 100 μl of stock HIV preparation corresponding to 1000×50% tissue culture infective dose (TCID50)/ml, then cells were washed five times and cultured at 5×10^5 cell/ml in 24-well microplates in the presence or absence of MPG/p7 (at 10^−8 and 10^−7 M) or AZT (AZT was purchased from Boehringer Mannheim, Germany) additive. Viral production was monitored twice a week by measuring reverse transcriptase activity in 1 ml of cell-free supernatant as previously described (39).

In data set [2] the test system is HIV-1 BRU, RF, SF2, NDK, ELI (clades B and D). Nature of the data set: β-gal activity assay in MAGIC-5 cells, HIV-1 isolates. It is filed as cell-based. Particulars: MAGIC5 cells, β-gal activity day 3, X4 and R5/X4 strains. How it is done: (§5) FIG. 2: Effect of MPG/p7 (SEQ ID NO:1) on replication of different subtypes of HIV-1 and HIV-2 studied using MAGIC5 cells. MAGIC-5 cells were incubated with 50 μl of stock HIV preparation corresponding to 1000×TCID50/ml. a, HIV-1 BRU; b, HIV-1 RF; c, HIV-1 SF2 (FIG. 2.A); d, HIV-1 NDK; e, HIV-1 ELI; f, HIV-2 ROD; g, HIV-2 EHO (FIG. 2.B) in medium alone (lane 2), medium supplemented with AZT (10^−5 M) (lane 3), MPG/p7 at 10^−7 and 10^−8 M (lane 4 and 5 respectively), or MPG/p237 (SEQ ID NO:5) at 10^−6 M (lane 6) additive. After 3 days in culture, 13-gal activity was evaluated in cell lysates by measuring absorbance at 410 nm. β-gal activity in uninfected MAGIC5 cells was measured as control (lane 1). […] The calculated values represent means of duplicate. […]
as §2
(§6) The efficiency of MPG/p7 monitored using the previously described MAGIC5 transfectant cells that express surface CD4, CXCR4 and CCR5 receptors and contain a reporter gene under control of an HIV-1 promoter that can be induced upon infection of the cells. […]

Data set [3] has as its system HIV-1 BRU. The note with it: cited from earlier work.
Data set [4] deals with HIV-1 RT dimerization (p66/p51) (Human immunodeficiency virus type 1 group M subtype B, UniProt P03366). Particulars: cited from earlier work.
The test system of data set [5] is HIV-2 ROD, EHO (clades A and B). Nature of the data set: β-gal activity assay in MAGIC-5 cells, HIV-2 isolates. The data set is classed as cell-based. Particulars: MAGIC5 cells, β-gal activity day 3. How it is done:
as §5, §2, §6

The next data set has as its system HIV-2 ROD. Put plainly: RT activity assay of viral production in HIV-2 ROD-infected CEM cells. The data set is classed as cell-based. How it is done: as §3, §4
Data set [6] relates to HIV-1 RTMF, HIV-1 RTMC, HIV-1 74V, HIV-1 N119 and HIV-1 RTMDR1. Put plainly: β-gal activity assay in MAGIC-5 cells, anti-RT drug resistant HIV-1 strains. The data set is classed as cell-based. The note with it: β-gal activity day 3. How it is done: as §1
β-gal activity assay. […] After 3 days in culture, cells were lysed and β-gal activity was determined by incubating 200 μl of total cellular extracts for 1 hat 37° C. in 1.5 ml buffer containing 80 mM NA2HPO4, 10 mM MgCl2, 1 mM 2 ME and 6 mM o-nitrophenyl β-D-galactopyranoside (ONPG). β-gal activity was evaluated by measuring absorbance at 410 nm. […]

KETWETWWTE [p7, KETWETWWTE]: in the data set with CEM cells, the “concentrations without any toxicity in CEM cells” value is listed as “below 10^−5 M”.

For the substance “MPG/p7: non-covalent complex of peptide p7 (SEQ ID NO:1) with carrier peptide MPG (SEQ ID NO:2) (chain 1 KETWETWWTE; chain 2 GALFLGFLGAAGSTMGAWSQPKSKRKV; also: non-covalent complex of p7 with carrier MPG)”, the “concentration required to inhibit HIV-1 RTMC relative to other viruses” value in the data set with HIV-1 RTMC (FIG. 3c) is recorded as “higher than that required to block the other viruses”. Further, the “concentration required to completely inhibit HIV-1 RTMC” value with HIV-1 RTMC (data not shown) is 10^−6 M. For the same substance, the “concentration required to inhibit HIV-1 RTMDR1 relative to other viruses” value with HIV-1 RTMDR1 was “higher than that required to block the other viruses”. Besides, in the data set on HIV-1 BRU [1] (10^−9 M, RT activity at the end of culture (day 17), CEM cells), the “effect on HIV-1BRU replication at 10^−9 M” value is reported as “very slow virus propagation”. Also, the “delay in HIV-1 replication” value in the data set with HIV-1 BRU [1] (10^−10 M of MPG/p7, CEM cells) is reported as 3 days. Further, the “concentration that abolishes the production of viral particles” value in the data set with HIV-1 BRU [1] (HIV-1 BRU-infected cultured CEM cells) is 10^−8 M. Besides, the “concentrations that totally inhibit HIV-1BRU replication” value with HIV-1 BRU [1] (RT activity in cell free supernatant, 17 days of incubation, CEM cells) is “above 10^−8 M”. In addition, the “concentration at which all HIV-1 strains tested were susceptible” value in data set [2] is on record as 10^−8 M. In addition, the “inhibition of HIV-1BRU replication in CEM cell culture (previously shown)” value with HIV-1 BRU [3] is reported as “inhibit”. Also, the “inhibition of HIV-1BRU RT dimerization in vitro (previously shown)” value in data set [4] was “inhibit”. Moreover, the “concentration at which all HIV-2 strains tested were susceptible” value in data set [5] is listed as 10^−8 M. Moreover, in the data set with HIV-2 ROD (10^−9 M of MPG/p7, CEM cells), the “delay in HIV-2 replication” value is on record as 3 days. In the data set with HIV-2 ROD (RT activity in supernatant, CEM cells), the “concentrations that strongly delay HIV-2ROD propagation” value is given as “above 10^−7 M”. In addition, the “sensitivity of escape mutant viruses to treatment” value in [6] is “sensitive”.
